Assay results taken from patent EP4813463A2, “TYK2 INHIBITORS AND COMPOSITIONS AND METHODS THEREOF” (Lynk Pharmaceuticals Co. Ltd., priority 2023, dated 2024).
Values after ≈ are worked out from the molar mass of the structure shown. Like-named read-outs stand apart in the source and are kept apart here.

Experiments:
TYK2-JH2 domain = biological target: T1, TYK2-JH2 domain (Homo sapiens, UniProt P29597); test: Binding activity test for JH2 domain of TYK2 (Tb-antibody/tracer FRET); details: for IC50: JH2 domain enzyme, 60 min at 25°C, then 4°C overnight, read-out: TYK2 JH2 Binding IC50; for JAK1/TYK2 selectivity: ratio of JAK1 JH2 to TYK2 JH2 binding IC50
T1 construct: JAK1-JH2 domain or TYK2-JH2 domain enzyme in assay buffer
T1 sequence (P29597 589-875 limits assumed): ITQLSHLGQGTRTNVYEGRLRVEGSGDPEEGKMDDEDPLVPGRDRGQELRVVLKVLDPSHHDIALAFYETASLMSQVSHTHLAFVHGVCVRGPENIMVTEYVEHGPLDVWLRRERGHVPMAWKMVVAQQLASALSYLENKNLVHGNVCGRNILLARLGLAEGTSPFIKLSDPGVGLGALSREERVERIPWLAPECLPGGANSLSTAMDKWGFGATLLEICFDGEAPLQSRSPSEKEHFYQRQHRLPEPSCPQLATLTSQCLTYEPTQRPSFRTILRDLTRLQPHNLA
Summary of the method: (§1)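 Competitive TR-FRET binding: compounds dispensed as an 11-point 3-fold dilution series, then Tb-labelled antibody and tracer added to the JH2 protein system. Incubated at 25°C, then overnight at 4°C; FRET signal read on Envision and IC50 (nM) derived.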

JAK1-JH2 domain = biological target: T2, JAK1-JH2 domain (Homo sapiens, UniProt P23458); test: Binding activity test for JH2 domain of JAK1 (Tb-antibody/tracer FRET); details: JH2 domain enzyme; 60 min at 25°C, then 4°C overnight; read-out: JAK1 JH2 Binding IC50
T2 construct: JAK1-JH2 domain or TYK2-JH2 domain enzyme in assay buffer
T2 sequence (P23458 583-855 limits assumed): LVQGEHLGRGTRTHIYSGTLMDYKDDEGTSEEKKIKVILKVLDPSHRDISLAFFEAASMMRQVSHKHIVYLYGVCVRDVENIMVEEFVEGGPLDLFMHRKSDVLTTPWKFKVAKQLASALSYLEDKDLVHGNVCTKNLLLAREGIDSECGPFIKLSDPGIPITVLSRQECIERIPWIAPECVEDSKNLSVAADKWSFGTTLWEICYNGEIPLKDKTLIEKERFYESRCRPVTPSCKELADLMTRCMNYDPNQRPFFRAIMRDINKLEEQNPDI
Summary of the method: as §1

[1] = test system: Ba/F3-FL-TYK2-P760L cells; test: Anti-proliferative assay in engineered Ba/F3 cells (Cell-Titer Glo, 72 h); type: cell-based; details: 72 h compound treatment, concentration that causes 50% growth inhibition, read-out: Baf3-FL-T2P760L
Summary of the method: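 Ba/F3 cells carrying Tel-dimerization/JAK kinase fusion, IL-3-independent, in RPMI-1640 + 10% FBS; 9-point 3-fold dilutions from 20 µM (0.1% DMSO) added after 24 h, 72 h at 37 °C. Viability by Cell-Titer Glo ATP luminescence; % inhibition versus DMSO cells, blank-corrected, giving IC50.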

TYK2 pathway = test: IFN-γ release in NK92 cells stimulated by IL-12 (ELISA); type: cell-based; details: IL-12 2.5ng/mL stimulation 15hrs, IFN-γ in supernatant by ELISA
Protocol: IFN-γ Release in NK92 Cells Stimulated by IL-12
Purpose: To evaluate the inhibition activity of TYK2 inhibitors in NK92 cells on TYK2 pathway through ELISA method.
Procedure: 1) Seeding NK92 cells into 96-well plate, cell density is 1.5E5 cells/well, 100uL/well; 2)Add prepared test articles into indicated wells, 50uL/well, and continue incubate for 1h, at 37°C; 3) After compound treatment, add 50uL/well IL-12 into indicated wells, final concentration of IL-12 is 2.5ng/mL; 4)Incubate cytokine stimulated cells at 37°C for another 15hrs in CO2 incubator; 5) After cytokine stimulation, transfer culture supernatant into a new plate and centrifuge for 5min at 350x g, and detect IFN-γ concentration in the supernatant with ELISA kit; 6) Data analysis with GrapdPad Prism6.0 software. Table 5. IC50 Values of Exemplary Compounds on TYK2 Pathway

pSTAT1 = test: Phosphorylation inhibition of STAT in human whole blood (IFN-alpha stimulated, flow cytometry); type: cell-based; details: T-cell, 20 min, IFN-alpha stimulation 20 mins, CD3 T cells, read-out: pSTAT1 inhibition in hWB (IC50)
Summary of the method: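 Fresh human whole blood stimulated 20 min with human universal type I IFN-alpha, then fixed, permeabilised and stained for CD3 and pSTAT1 (Y701). pSTAT1 in T cells read by flow cytometry; IC50 from 4-parameter logistic fit.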

[2] = Microsomal metabolic stability assay; type: in vitro ADME; details: human, liver microsomes, pH 7.4, 0.5 mg/mL microsomal protein, 1 µM test article, 2 mM NADPH
Summary of the method: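 Test or control compound (1 µM) incubated with microsomes (0.5 mg/mL protein) in 100 mM potassium phosphate pH 7.4, 1.0 mM EDTA at 37°C, started with NADPH regenerating system (2 mM NADPH). Sampled at 0, 5, 15, 30, 45 min, acetonitrile-quenched, LC/MS/MS. T1/2 from ln %remaining vs time slope; CLint = 0.693/T1/2 per mg protein/mL.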

Kinetic solubility = type: physicochemical; details: phosphate buffer, pH 7.4, aqueous buffer, kinetic from dmso stock, 100 mM pH 7.4 phosphate buffer, 1% DMSO, room temperature, read-out: Kinetics Solubility_PBS7.4
Summary of the method: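 Compounds diluted from 10 mM/5 mM DMSO stocks into 100 mM phosphate buffer pH 7.4 (1% DMSO final), shaken 2 h at room temperature, then centrifuged. Dissolved compound in supernatant quantified by LC-MS/MS against a standard curve.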

IFNa pSTAT1 [3] = test: Phosphorylation of STAT1 inhibition in HMC3 cells with HTRF assay; type: cell-based; details: Homo sapiens, HMC3 microglia cells, 50ng/mL hINFα 1 hour, read-out: HTRF_HMC3 IC 50 (IFNa pSTAT1)
Protocol: Seeding HMC3 cells into 96-well plate and incubate overnight. Pre-stimulation with recombinant human IFNα (Sino biological, H08Y), treat cells with compound with different concentration for 1hr. After compound treatment, stimulate cells with 50ng/mL hINFα for another 1 hour (for CCF-STTG1 cells IFNα induction time is 30 mins). After compound treatment and cytokine stimulation, dump old medium and lyse cells with supplemented lysis buffer provided by the HTRF kit (Revvity, 63ADK026PEG) for 30 min at room temperature under shaking. After homogenization by pipetting up and down, transfer 16 µL of cell lysate from the 96-well cell-culture plate to a small volume white 384-well plate, and then add 4 µL of pre-mixed two ready-to-use antibody working solution into each wells. Cover the plate with a plate sealer and incubate it overnight at room temperature. Read the fluorescence emission at two different wavelengths (665nm and 620nm) on microplate reader (Molecular Device, SpectraMax i3X). Collect data and analyzed with GraphPad Prism.

IFNa pSTAT1 [4] = test: Phosphorylation of STAT1 inhibition in HMC3 cells by Jess; type: cell-based; details: Homo sapiens; HMC3 microglia cells, 50ng/mL hINFα 1 hour, Jess western; read-out: Jess_HMC3 IC50 (IFNa pSTAT1)
Protocol: Seeding HMC3 cells into 12-well plate and incubate overnight. Pre-stimulation with recombinant human IFNα (Sino biological, H08Y), treat cells with compound with different concentration for 1hr. After compound treatment, stimulate HMC3 cells with 50ng/mL hINFα for another 1 hour (for CCF-STTG1 cells IFNα induction time is 30 mins). And then wash cells with DPBS once gently and lyse cells with pre-cooled RIPA buffer (Sigma, R0278-500ML) for 30min on ice to harvest cells. Centrifuge cell lysate for 20 mins at 12000rpm with freezer centrifuge (Thermo Scientific, Heraeus Fresco 21) to extract protein. Prepare samples with Jess Simple Wes kit (SM-WO04) and then run western blot on Jess simple western system (Protein simple, JS-4631). Collect data and analyzed with GraphPad Prism.

[5] = Brain pharmacokinetic studies in rats; type: in vivo, Sprague-Dawley rats; details: for half-life / Kp / AUC: rats, iv, solution; for Kp: read-out: Brain AUC/Systemic AUC; for brain exposure in Rats: result in words
Protocol: Pharmacokinetic profiles of test articles were evaluated in fasted Sprague-Dawley rats. Different kinds of formulations were designed to ensure test articles fully dissolved and wouldn't precipitate in 1:10 SGF or FaSSIF dilution. Typically, Rats were dosed with 3 mg/kg and 5 mg/kg by intravenous injection and oral gavage, respectively. The animal was restrained manually at the designated time points, approximately 150 µL of blood sample was collected via jugular vein for serial bleeding into K2EDTA tubes. The blood samples were maintained in wet ice first and centrifuged to obtain plasma (2000g, 4°C, 5 min) within 30 minutes post sampling. Anesthetizing the rat with the Isoflurane vaporizer to 2%~3% and place its back on the operation table. Spread the animal limbs and pin the limbs on the operation table. Make a cut along the sternum about 4cm long, low enough to expose the sternum's end. Expose the heart and use a 25-gauge needle connected with a 20 mL syringe filled with 20 mL of cold saline to pierce the left ventricle. Maintain the placement of the needle, and slowly push the syringe plunger to wash the brain with saline. The perfusion will be finished within about 2 min and then take the brain out of the body carefully without damaging the tissue. Dry the tissue on filtrate paper, which should be placed on ice, and then weigh the brain tissue and store at -70 °C and analyzed by LC/MS/MS for quantification. PK parameter values, including, but not necessarily limited to, the maximum plasma concentrations (Cmax), and the area under the plasma concentration vs. time curve (AUC) from time zero to 24-hour (AUC0-24h) were determined using WinNonlin program. Table 13. Systemic Pharmacokinetic Parameters in Sprague-Dawley Rats

[6] = Sprague-Dawley, rat, brain, 3 mg/kg
[7] = Sprague-Dawley, rat, brain, 2 mg/kg

| Structure (SMILES) | IC50 (TYK2-JH2 domain) | JAK1/TYK2 selectivity (TYK2-JH2 domain) | IC50 (JAK1-JH2 domain) | IC50 (pSTAT1) | IC50 ([1]; Mus musculus, BaF3, 72 h) | IC50 (IFNa pSTAT1 [3]) | further results |
| --- | --- | --- | --- | --- | --- | --- | --- |
| [2H]C([2H])([2H])NC(=O)c1cnc(NC(=O)[C@@H]2C[C@@H]2F)cc1Nc1cnn2ccc(C(O)C(F)(F)F)c(OC)c12 (single isomer, unassigned) [Example 15A, 6-((1S,2S)-2-fluorocyclopropane-1-carboxamido)-4-((4-methoxy-5-((S*)-2,2,2-trifluoro-1-hydroxyethyl)pyrazolo[1,5-a]pyridin-3-yl)amino)-N-(methyl-d3)nicotinamide] | 0.078 nM | 160.8 | 12.5 nM | 34.8 nM | – | – | IC50 [1]: 10.6 nM; IC50 (TYK2 pathway): 15.7 nM; microsomal CLint at 1 µM ([2]; read-out: Human LM Clint): 11.9 µL/min/mg; half-life at 1 µM ([2]; read-out: Human LM T1/2): 1.94 h; solubility kinetic at 2 h (Kinetic solubility): 23.9 µM (≈ 11.9 µg/mL) |
| CCn1nc(Nc2cc(NC(=O)C3CC3)ncc2C(=O)OC)c2c(OC)c(C(O)C(F)(F)F)ccc21 (single isomer, unassigned) [Example 70A, Methyl (S*)-6-(cyclopropanecarboxamido)-4-((1-ethyl-4-methoxy-5-(2,2,2-trifluoro-1-hydroxyethyl)-1H-indazol-3-yl)amino)nicotinate] | 0.15 nM | 145.12 | 21.8 nM | 43.7 nM | 2.35 nM | < 0.061 nM | – |
| CCC(F)(F)c1cnc(NC(=O)C2CC2)cc1Nc1nn(C)c2ccc(C(O)C(F)(F)F)c(OC)c12 (single isomer, unassigned) [Example 193A, (S*)-N-(5-(1,1-Difluoropropyl)-4-((4-methoxy-1-methyl-5-(2,2,2-trifluoro-1-hydroxyethyl)-1H-indazol-3-yl)amino)pyridin-2-yl)cyclopropanecarboxamide] | 0.417 nM | – | – | – | – | 0.821 nM | IC50 [1]: 0.395 nM; IC50 (IFNa pSTAT1 [4]): 4.28 nM |
| COC(=O)c1cnc(NC(=O)C2CC2)cc1Nc1cnn2ccc([C@H](O)C(F)(F)F)c(OC)c12 [Example 26, Methyl (5)-6-(cyclopropanecarboxamido)-4-((4-methoxy-5-(2,2,2-trifluoro-1-hydroxyethyl)pyrazolo[1,5-a]pyridin-3-yl)amino)nicotinate] | 0.183 nM | 338.1 | 61.9 nM | – | 35.2 nM | – | IC50 (TYK2 pathway): 17.6 nM; half-life [5, 6]: 1.99 h; Kp [5, 6]: 0.11; half-life ([5]; Sprague-Dawley, rat, systemic (plasma), 3 mg/kg): 1.53 h; AUC ([5]; Sprague-Dawley, rat, systemic (plasma), 3 mg/kg, read-out: AUC): 1290 ng·h/mL; AUC ([5]; brain, 3 mg/kg): 140 ng·h/g; brain exposure in Rats [5]: good brain exposure |
| [2H]C([2H])([2H])CC(=O)c1cnc(NC(=O)C2CC2)cc1Nc1nn(C)c2ccc([C@H](O)C(F)(F)F)c(OC)c12 [Example 54A, (S)-N-(4-((4-methoxy-1-methyl-5-(2,2,2-trifluoro-1-hydroxyethyl)-1H-indazol-3-yl)amino)-5-(propanoyl-3,3,3-d3)pyridin-2-yl)cyclopropanecarboxamide] | 0.118 nM | 32.37 | 3.82 nM | 10.8 nM | 0.577 nM | < 0.061 nM | half-life [5, 7]: 1.64 h; Kp [5, 7]: 0.18; half-life ([5]; Sprague-Dawley, rat, systemic (plasma), 2 mg/kg): 1.7 h; AUC ([5]; Sprague-Dawley, rat, systemic (plasma), 2 mg/kg, read-out: AUC): 1060 ng·h/mL; AUC ([5]; brain, 2 mg/kg): 188 ng·h/g; brain exposure in Rats [5]: good brain exposure |
| COC(=O)c1cnc(NC(=O)C2CC2)cc1Nc1nn(C)c2ccc(C(OC)C(F)F)c(OC)c12 (stereo not drawn) [Example 68, Methyl 6-(cyclopropanecarboxamido)-4-((5-(2,2-difluoro-1-methoxyethyl)-4-methoxy-1-methyl-1H-indazol-3-yl)amino)nicotinate] | 0.14 nM | 116.36 | 16.3 nM | – | 3.6 nM | < 0.061 nM | IC50 (IFNa pSTAT1 [4]): 3.17 nM |
| COCC(OC)c1ccc2c(c(Nc3cc(NC(=O)C4CC4)ncc3C(=O)OC)nn2C)c1OC (stereo not drawn) [Example 159, Methyl 6-(cyclopropanecarbonylamino)-4-[[5-(1,2-dimethoxyethyl)-4-methoxy-1-methyl-indazol-3-yl]amino]pyridine-3-carboxylate] | 0.203 nM | 40.45 | 8.21 nM | 129 nM | 6.29 nM | 0.082 nM | – |
